Reference: patent US8236761B2, “C-Met receptor regulation by angiotensin IV (AT4) receptor ligands” (Washington State University Research Foundation, priority 2006, dated 2012)
Non-standard residues stand in square brackets, D forms with d. No end group written: not given here. Nle = CCCC[C@H](N)C(=O)O

Legend:
B16-F10 melanoma cells = test: In vivo pulmonary B16-F10 melanoma metastasis model; design: species or system C57BL/6 mice; conditions: tail vein inoculation, IP 50 μg/kg/day, fourteen days, melanin absorbance
Procedure: (FIG. 13A) C57BL/6 mice were inoculated subcutaneously with B16-F10 cells. Control or Norleual-containing slow release Elvax pellets were implanted inter-muscularly. Tumors were measured with digital calipers and tumor volumes were calculated (n=6), error bars indicate ±SD. (FIG. 13B) 400,000 B16-F10 cells, treated in suspension with either Norleual at 10^−11 M or PBS as a vehicle control, were injected into the tail vein of C57BL/6 mice. Mice received IP injections of Norleual (50 μg/kg/day) or PBS vehicle control. After fourteen days, lungs were removed and the absorbance of melanin was used to quantify metastasis; bars show (left to right) graft recipients treated with vehicle only, Norelual treated graft recipients, and ungrafted age-matched control. Error bars indicate±SEM, with n=5 and *p<0.05. (FIG. 13C) Photo of representative lungs from vehicle-only treated (controls, “Norleal −”) and Norleual treated (“Norleual +”) grafted mice.
In vivo metastasis. Six to eight month old C57BL/6 mice were injected with 400 000 B16-F10 cells in 200 μl PBS by tail vein injection. Two to three weeks later, mice were anesthetized and lungs were perfused with PBS and removed. […] The supernate was transferred to a 96 well plate and melanin absorbance at 410 nm was measured using a plate reader (Biotek Synergy2, Winooski, Vt., USA). […]

[1] = Chronic treatment: body weight, DXA body composition and pathology; type: in vivo, C57BL/6 mice
Procedure: Twenty-four five-week old C57BL/6 male mice were equally and randomly assigned to two groups. One group was assigned as control and the other treated. Treated mice were administered intermuscular (IM) injections of Norleual at 21 μg/kg/day, (40 μl injectable volume) every 48 hours for the duration of one hundred and one days. Injection sites were alternated between left and right gluteus medius. BD Ultra-Fine 3/10 cc insulin syringes were used as delivery apparatus. Mice were housed two per cage and had unlimited access to food and water. Mice were monitored daily for signs of morbidity. Mice were also weighed on a weekly basis. C57/BL6 mice were treated either with vehicle control or with Norleual chronically for 101 days.
To assess body composition of the mice, the Comparative Orthopedic Research Laboratory at the Washington State University Veterinary School was utilized. A Hologic QDR4500A fan beam dual-energy X-ray absorptiometer (DXA, Hologic Inc., Bedford, Mass.) was used to assess the lean body mass (muscle), fat, and bone composition of each mouse on day one hundred one of the experiment. Mice were sacrificed and DXA scans were performed. Due to the volume limitations of the DXA instrument and to permit time for gross pathology, half of the mice were sacrificed and analyzed on day 101. The remaining mice were sacrificed and analyzed 22 hours later. Control and treated mice were split evenly among the two sacrifice episodes. Data were collected and the control group was compared to the Norleual treated group by two-tailed student's t-tests using InStat software (GraphPad, San Diego, Calif.). Figures were created using GraphPad Prism software.
Gross pathology and microscopic pathological evaluation on autopsy tissue were performed in blinded fashion on animals following sacrifice, with attention to multiple organs.

neovascularization = test: Disc angiogenesis assay (subcutaneous sponge disc); type: in vivo, Sprague Dawley rats; conditions: 50 μg per disc core, 14 days, rat
Procedure: FIG. 19 depicts effects on angiogenesis of angiotensin-like factors in a rat in vivo disc angiogenesis assay. Vascularization was quantified by digital image analysis of fixed and stained discs recovered from animals 14 days after subcutaneous implantation of sponge discs containing the indicated compounds.
Disc Angiogenesis Assay. […] A 2 mm core was removed from the center of each disc, saturated with 50 μg of Nle^1-AngIV (SEQ ID NO:41), Nle^1-Leu^3-Ψ(CH2NH2)^3-4-AngIV, Hexamide, or ethanol (control), air dried, then sealed using a fixative (Elvax, DuPont) to allow sustained delivery of the drug treatment into the disc and adjacent tissues. The cores were dried for 30 min, then reinserted into the sponge discs. Impermeable top and bottom covers were prepared by coating 10 mm diameter paper discs with a plexiglass coating, then glued to the top and bottom of the sponge discs, leaving only the rim of the disc available for centripetal cellular penetration. Just prior to implantation, the discs were soaked briefly in sterile saline.
Thirty-two Sprague Dawley female rats (225-275 gr) were used to evaluate four compounds for angiogenic or anti-angiogenic properties using the disc angiogenesis assay. Animals were anesthetized using sodium pentobarbital (40 mg/kg IP). The dorsum was then shaved and aseptically prepped. Each animal received four discs. Animals receiving treated discs were implanted with 2 treated discs and 2 ethanol-soaked control discs. Thus, in a group of 4 animals there were 8 treatment discs, and 8 control discs. These control discs were used to determine whether the ligand had potential systemic effects. Another group of 4 animals received only ethanol-soaked control discs (spontaneous growth controls or SGC discs) for an n=16. However, one SGC was fragmented during processing leaving an n=15.
Four 2 cm cutaneous incisions were made along the dorsum (left thoracic, right thoracolumbar, left thoracolumbar, and right lumbar), and subcutaneous pouches opened in the fascia using blunt dissection. Discs were moistened in sterile saline, inserted deep to the pouch, and the skin closed with sterile surgical staples. Animals were recovered under heat lamps until sternally recumbent, then individually housed for 14 days in an AAALAC accredited facility (water and food ad libitum; 12/12 hour light cycle).
After 14 days the animals were euthanized in a CO2 chamber and the discs were removed. […] Cellular penetration into the discs was quantified using a digital imaging system (Imaging Research Inc., St. Catharines, Ontario, Canada). The total area of the disc was calculated, as was the area containing stained cells. […]
Results. Following staining with toludine blue or Factor VIII, neovascularization was quantitated by densitometry.

For “Nle-Tyr-Leu-ψ-His-Pro-Phe ([Nle]YLHPF; also: reduced peptide bond psi(CH2NH2) between Leu and His) [Norleual]”, the B16-F10 lung metastasis (B16-F10 melanoma cells) was “dramatically inhibited”, the “Visual inspection of animals versus control” value ([1]; 101 days treatment) was “visibly less bulky” and the “Scale measured weights versus control mice” value ([1]; IM 21 μg/kg/day every 48 hours, day 101, p=0.0130) was “significantly lower”. For the same substance, the “Distribution of lipid vacuoles in the liver relative to control animals” value ([1]; autopsy tissue, blinded pathology) was “marked reduction”, the “DXA measured bone mineral density versus control mice” value ([1]; day 101) was “not statistically significant” and the “Percent fat versus control mice (DXA)” value ([1]; day 101, p<0.0001) was “significantly lower”. The “DXA measured mass versus control mice” value ([1]; day 101, p=0.0146) was “significantly lower”, the “DXA measured area versus control mice” value ([1]; day 101, p=0.023) was “significantly lower” and the “Lean body mass+bone mineral content (BMC) versus control mice (DXA)” value ([1]; day 101, p=0.18) was “not significantly different”. The “Effect on angiogenesis in disc assay versus SGC discs” value (neovascularization) was “antagonist activity”.
